Source: US10111877B2, “Modulators of androgen synthesis” (Tangent Reprofiling Limited, priority 2012, dated 2018)
Where two headings read alike, the source gives them in different places.

Columns and labels:
OVCAR-3 cells = experiment: Cell growth inhibition, lysed cell LDH assay, ovarian cancer cell line; format: cell-based
Protocol: (§1) To determine whether Risperidone could be effective in inhibiting growth of cancer cells overexpressing HSD10, a lysed cell LDH assay was conducted using cells taken from a prostate cancer cell line, a lung cancer cell line, a breast cancer cell line, an ovarian cancer cell line, each of which was known to overexpress HSD10, and a non-cancerous cell line.
(§2) After incubation in the drug treatment for 96 hours at 37° C., 5% CO2, the supernatant was removed from all wells of cells, and cells washed with 200 μL PBS.
(§3) After removal of the PBS from the cell cultures described above, cell number was determined using a lysed cell LDH assay. Cells were lysed with 0.9% Triton-X in PBS for 2 hours at 37° C., 5% CO2 and 50 μL of this cell lysate was transferred to a fresh 96 well plate. About 50 μL of CytoTox 96 assay reagent was added to the transferred cell lysate and this mixture was incubated at room temperature in the dark for 20 minutes. After the addition of 50 μL stop reagent, the optical absorbance was determined for each incubated mixture at 492 nm. […] The mean and standard error was calculated from at least 3 wells.

PC3 cells = experiment: Cell growth inhibition, lysed cell LDH assay, prostate cancer cell line; format: cell-based
Protocol: To determine whether Risperidone could be effective in inhibiting growth of cancer cells overexpressing HSD10, a lysed cell LDH assay was conducted using cells from a PC3 cell line.
(§4) PC3 cells are from a cell line derived from a hormone refractory prostate cancer and are known to overexpress HSD10. […] Cells line tests were carried out in presence and absence of testosterone for comparison. After incubation in the drug treatment for 96 hours at 37° C., 5% CO2, the supernatant was removed from all wells of cells, and cells washed with 200 μL PBS.
as §3, with “PBS,” for “PBS from the cell cultures described above,”, “assay (CytoTox 96 Non-radioactive cytotoxicity assay (LDH Assay); Promega, Co., Madison Wis.).” for “assay.”
To determine the optimal concentration of Risperidone and CLA necessary to inhibit cell growth, a lysed cell LDH assay was conducted using various concentration of Risperidone and CLA. PC3 cells were cultured and a lysed cell LDH assay was conducted as described above, except that the various drug treatments evaluated contained either 0 μM, 12.5 μM, 25 μM, or 50 μM Risperidone in combination with 0 μM, 6.25 μM, 12.5 μM, 25 μM, 50 μM, or 100 μM CLA (see Table 3).
as §3

A549 cells = experiment: Cell growth inhibition, lysed cell LDH assay, lung cancer cell line; format: cell-based
Protocol: To determine whether Risperidone alone, or in combination with CLA could inhibit cell growth of cells taken from a lung cancer cell line overexpressing HSD10, A549 cells were seeded at a density of 2,000 cells per well in a 96 well plate, and incubated at 37° C., 5% CO2 for 48 hours in standard growth media (DMEM nutrient media, 10% Fetal Calf Serum, 2 mM L-Glutamine). The media was then removed by pipette and replaced with the appropriate drug treatment as follows: 50 μM Risperidone in A459 treatment media (DMEM nutrient media, 125 uM fatty acid free BSA, 2 mM L-Glutamine); 50 μM CLA in A459 treatment media; 50 μM Risperidone and 50 μM CLA in A459 treatment media; 50 μM Risperidone and 1 μM Testosterone in A459 treatment media; 50 μM Risperidone, 50 μM CLA, and 1 μM Testosterone in A459 treatment media. After incubation in the drug treatment for 96 hours at 37° C., 5% CO2, the supernatant was removed from all wells of cells, and cells washed with 200 μL PBS.
After removal of the PBS from the cell cultures described above, cell number was determined using a lysed cell LDH assay. Cells were lysed with 0.9% Triton-X in PBS for 2 hours at 37° C., 5% CO2 and 50 μL of this cell lysate was transferred to a fresh 96 well plate. About 50 μL of CytoTox 96 assay reagent was added to the transferred cell lysate and this mixture was incubated at room temperature in the dark for 20 minutes. After the addition of 50 μL stop reagent, the optical absorbance was determined for each incubated mixture at 492 nm. The percentage cell number was calculated by normalizing the experimental counts, where 100% is set to cells receiving no drug treatment, and 0% is set to readings from wells containing no cells. The mean and standard error was calculated from at least 3 wells.

PC-3M-luc cells = experiment: Orthotopic prostate tumor mouse xenograft model; conditions: single drug
Protocol: Immunodeficeint male mice (athymic nude mice) were acclimated to the laboratory for at least one week prior to implantation of tumor. PC-3M-luc cells obtained directly from in vitro culture were then injected into the prostate on Day 0. Animals were divided into six groups of 12 mice each. Primary tumor size and metastases were assessed by bioluminescence measurements on day 6, 13, 20, 27, 34, and 40. On day 7 a five week treatment regime was initiated. Both individual drug and high and low dose combination were examined by administering the drugs twice daily on an individual body weight basis using a dose escalation protocol (Table 7). If tumors grew above a pre-determined level, or mice lost more than 10% of bodyweight, they were culled. The primary tumor was excised, weighed and measured. Individual organs were imaged to assess metastatic burden.

MCF7 cells = experiment: Cell growth inhibition, lysed cell LDH assay, breast cancer cell line; format: cell-based
Protocol: as §1, §2, §3

HSD10 = molecular target: T1, HSD10 (Homo sapiens, UniProt Q99714); experiment: HSD10 Enzyme Inhibition Assay; format: biochemical; conditions: 50 μM drug
T1 construct: endogenous in cells; host or cells: PC3 cells
T1 sequence (Q99714 1-261): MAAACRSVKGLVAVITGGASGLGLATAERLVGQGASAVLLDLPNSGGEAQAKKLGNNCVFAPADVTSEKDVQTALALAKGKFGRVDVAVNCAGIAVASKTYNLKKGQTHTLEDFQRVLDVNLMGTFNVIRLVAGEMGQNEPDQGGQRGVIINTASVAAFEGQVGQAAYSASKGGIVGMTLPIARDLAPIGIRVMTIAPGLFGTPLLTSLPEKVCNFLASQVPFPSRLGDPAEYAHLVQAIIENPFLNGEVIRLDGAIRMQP
Protocol: An HSD10 inhibition assay was performed to determine the effect of several anti-psychotics on enzyme activity.
as §4
as §3, with “PBS,” for “PBS from the cell cultures described above,”, “assay (CytoTox 96 Non-radioactive cytotoxicity assay (LDH Assay); Promega, Co., Madison Wis.).” for “assay.”

BxPC-3 cells = experiment: Resazurin-based cell viability assay, pancreatic cancer cell line; conditions: Homo sapiens, BXPC-3, read-out: growth inhibition of Bx-PC3 cells
Protocol: To determine whether Risperidone alone, or in combination with CLA could inhibit cell growth of cells taken from a pancreatic cancer cell line overexpressing HSD10, a resazurin-based cell viability assay was conducted on Bx-PC3 cells.
BxPC-3 cells are from a cell line derived from a human pancreatic adenocarcinoma and are known to overexpress HSD10. BxPC-3 cells were seeded at a density of 4,000 cells per well in a 384 well plate, and incubated at 37° C., 5% CO2 for 24 hours in standard growth media (RPMI nutrient media, 5% heat-inactivated Fetal Calf Serum, 2 mM L-Glutamine). The media was then removed by pipette and replaced with 50 μL BxPC-3 treatment media comprising 125 μM fatty acid-free BSA, 2 mM L-Glutamine and one of the following drug treatments: 0.1 μM, 2 μM, or 50 μM Risperidone; 0.1 μM, 2 μM, or 50 μM CLA; or 0.1 μM, 2 μM, or 50 μM of Risperidone and CLA (in equimolar amounts). After incubation in the drug treatment for 72 hours at 37° C., 5% CO2, viable cell number was determined using a resazurin-based cell viability assay (PRESTOBLUE®; Invitrogen, Carlsbad, Calif.). To each well, 7 μL of PRESTOBLUE® reagent was added and the plates incubated for 60 minutes at 37° C., 5% CO2. After incubation, the fluorescence intensity of each well was determined using a microplate reader by excitation and 570 nm and recording emission at 600 nm. The percentage of viable cell number was calculated by normalizing the experimental fluorescence intensity, where 100% is set to cells receiving no drug treatment (cells metabolizing at optimal rate), and 0% is set to readings from cells treated with Paclitaxel (cells not metabolizing at all due to their destruction by anti-cancer drug). A value under 50% could be considered a useful indication of potential efficacy.

VERO cells = experiment: Cell growth inhibition, lysed cell LDH assay, non-cancerous cell line; format: cell-based
Protocol: as §1, §2, §3

[1] = 50 μM Risperidone and/or 50 μM CLA, 1 μM Testosterone (T) where added, 96 hours

SMILES: Cc1nc2n(c(=O)c1CCN1CCC(c3noc4cc(F)ccc34)CC1)CCCC2 [Risperidone, 3-[2-[4-(6-fluoro-1,2-benzoxazol-3-yl)piperidin-1-yl]ethyl]-2-methyl-6,7,8,9-tetrahydropyrido[1,2-a]pyrimidin-4-one]
- Percentage of Lysed Cells (OVCAR-3 cells; [1]): 64 ± 0.4%
- inhibition at 50 µM (OVCAR-3 cells; Homo sapiens, 50 μM): ~35%
- Percentage of Lysed Cells (PC3 cells; 12.5 μM Risperidone, 0 μM CLA (Table 4)): 81 ± 3.6%
- Percentage of Lysed Cells (PC3 cells; 12.5 μM of each drug, 96 hours, 100% = no drug treatment (Table 3)): 102 ± 5.4%
- Percentage of Lysed Cells (PC3 cells; 25 μM Risperidone, 0 μM CLA (Table 4)): 73 ± 2.2%
- Percentage of Lysed Cells (PC3 cells; 25 μM of each drug, 96 hours, 100% = no drug treatment (Table 3)): 93 ± 0.51%
- Percentage of Lysed Cells (PC3 cells; 50 μM Risperidone, 0 μM CLA (Table 4)): 79 ± 0.7%
- Percentage of Lysed Cells (PC3 cells; 50 μM of each drug, 96 hours, 100% = no drug treatment (Table 3)): 52 ± 0.22%
- inhibition at 50 µM (PC3 cells; Homo sapiens, PC-3, 50 μM): ~50%
- Percentage of Lysed Cells (PC3 cells; PC3, 50 μM Risperidone and/or 50 μM CLA, 1 μM Testosterone (T) where added, 96 hours (Table 5)): 52 ± 1.7%
- growth inhibition of PC3 cells (PC3 cells; either 25 μM or 50 μM Risperidone alone (Table 4 experiment)): 20-30%
- Percentage of Lysed Cells (A549 cells; A549, 50 μM Risperidone and/or 50 μM CLA, 1 μM Testosterone (T) where added, 96 hours): 38 ± 1.9%
- inhibition at 50 µM (A549 cells; Homo sapiens, A549, read-out: growth inhibition of A549 cells): > 60%
- body weight throughout the study (PC-3M-luc cells; by Day 40): maintained a constant weight
- animal loss (PC-3M-luc cells; by day 34): about 10%
- Tumor Growth Inhibition (PC-3M-luc cells; calculated on Day 34, dosing per Table 7): 16%
- Animal Survival (overall survivorship) (PC-3M-luc cells; day 40, dosing per Table 7): 33%
- Percentage of Lysed Cells (MCF7 cells; [1]): 35 ± 2.4%
- inhibition at 50 µM (MCF7 cells; Homo sapiens, 50 μM): ~65%
- Oxidative Activity Rate (HSD10): 1.0 µM/min
- Reductive Activity Rate (HSD10): 3.3 µM/min
- inhibition at 50 µM (HSD10; read-out: Oxidative Activity Drug Inhibition): 88%
- inhibition at 50 µM (HSD10; read-out: Reductive Activity Drug Inhibition): 63%
- inhibition at 50 µM (BxPC-3 cells): ~60%
- effect on growth of cells from the non-cancerous cell line VERO (VERO cells; 50 μM): neither Risperidone nor CLA had any measurable effect
- Percentage of Lysed Cells (VERO cells; VERO, 50 μM Risperidone and/or 50 μM CLA, 1 μM Testosterone (T) where added, 96 hours): 94 ± 1.7%
